# Results from ChEMBL document CHEMBL3045636, “Synthesis, characterization, in vitro anticancer activity, and docking of Schiff bases of 4-amino-1,2-naphthoquinone” (Med Chem Res, 2013).
# pIC50: −log10 of the molar value. Calls of active or inactive are those of the source. The calls are words filed in the database; no cut-off is given here.
# Assays:
# Type in all cases: functional, cell-based
# MCF7 [1] = experiment: Cytotoxicity against Homo sapiens (human) MCF7 cells assessed as reduction of cell survival after 48 hr by MTT assay; conditions: MCF7, 48 h
# MG-63 [2] = experiment: Cytotoxicity against Homo sapiens (human) MG63 cells assessed as reduction of cell survival after 48 hr by MTT assay; conditions: MG-63, 48 h
# HepG2 [3] = experiment: Cytotoxicity against Homo sapiens (human) HepG2 cells assessed as reduction of cell survival after 48 hr by MTT assay; conditions: HepG2, 48 h
# MG-63 [4] = experiment: Cytotoxicity against Homo sapiens (human) MG63 cells assessed as morphological changes at 10 uM after 48 hr by phase contrast microscopic analysis relative to untreated control
# MCF7 [5] = experiment: Cytotoxicity against Homo sapiens (human) MCF7 cells assessed as morphological changes at 10 uM after 48 hr by phase contrast microscopic analysis relative to untreated control
# HepG2 [6] = experiment: Cytotoxicity against Homo sapiens (human) HepG2 cells assessed as morphological changes at 10 uM after 48 hr by phase contrast microscopic analysis relative to untreated control
SMILES,pIC50 (MCF7 [1]),pIC50 (MG-63 [2]),pIC50 (HepG2 [3]),Activity (MG-63 [4]),Activity (MCF7 [5]),Activity (HepG2 [6])
O=C1C=C(/N=C\c2cccc(Br)c2)c2ccccc2C1=O,4.83,4.76,4.91,,,
O=C1C=C(/N=C\c2ccc(O)cc2)c2ccccc2C1=O,4.95,4.87,5.05,,,
O=C1C=C(/N=C\c2ccccc2[N+](=O)[O-])c2ccccc2C1=O,4.84,4.77,4.93,,,
O=C1C=C(/N=C\c2ccccc2O)c2ccccc2C1=O,4.88,4.79,4.96,,,
O=C1C=C(/N=C\c2c[nH]c3ccccc23)c2ccccc2C1=O,4.95,4.86,4.99,,,
Cc1ccc(/C=N\C2=CC(=O)C(=O)c3ccccc32)cc1,4.90,4.82,4.98,,,
O=C1C=C(N=C2CCCC2)c2ccccc2C1=O,5.02,4.93,5.11,,,
CN(C)c1ccc(/C=N\C2=CC(=O)C(=O)c3ccccc32)cc1,4.98,4.89,5.11,,,
COc1ccc(/C=N\C2=CC(=O)C(=O)c3ccccc32)cc1OC,4.96,4.88,5.04,,,
O=C1C=C(/N=C\c2ccccc2)c2ccccc2C1=O,4.86,4.79,4.94,,,
"NC1=CC(=O)C(=O)c2ccccc21 [4-AMINO-[1,2]NAPHTHOQUINONE]",4.83,4.61,4.80,,,
O=C1C=CC(=O)c2ccccc21 [NAPHTHOQUINONE],4.77,< 4.60,4.80,,,
O=C1C=C(/N=C\c2ccc(Cl)cc2Cl)c2ccccc2C1=O,4.83,4.61,4.80,,,
O=C1C=C(/N=C\c2ccc([N+](=O)[O-])cc2)c2ccccc2C1=O,4.83,4.60,4.81,,,
COc1cc(/C=N\C2=CC(=O)C(=O)c3ccccc32)cc(OC)c1OC,5.12,5.01,5.23,Active,Active,Active
COc1ccc(/C=N\C2=CC(=O)C(=O)c3ccccc32)cc1,4.95,4.90,5.04,,,
O=C1C=C(/N=C\C=C\c2ccccc2)c2ccccc2C1=O,4.89,4.83,4.97,,,
COc1cccc2c1C(=O)c1c(O)c3c(c(O)c1C2=O)C[C@@](O)(C(=O)CO)C[C@@H]3O[C@H]1C[C@H](N)[C@H](O)[C@H](C)O1 [DOXORUBICIN],5.57,5.50,5.77,,,
COc1cc(/C=N\C2=CC(=O)C(=O)c3ccccc32)ccc1O,5.08,5.00,5.20,,,
O=C1C=C(N=C2CCCCC2)c2ccccc2C1=O,5.03,4.94,5.13,,,
O=C1C=C(/N=C\c2ccccc2Cl)c2ccccc2C1=O,4.85,4.77,4.92,,,
